# According to a melting point compilation (Tetko et al.; mined from patent text by program, amines drawn as free bases though some values may be those of a salt):
row,SMILES,melting point
1,O=C(NCC1CN(Cc2ccccc2)CCO1)c1cccc2c1OCO2 (stereo unspecified),144 to 146 °C
2,CSc1c(F)ccc2onc(OCCNC(=O)OC(C)(C)C)c12,91 to 92 °C
3,CCc1nc2cc(F)ccc2n1C1CC2CCC(C1)N2CCCSc1ccc(F)cc1 (stereo unspecified),127 to 128 °C
4,CC(C)(C)OC(=O)N1C[C@@H]2OCc3c(-c4cccc(F)c4)nnn3[C@H]2C1,249 to 250 °C
5,NC(=O)COc1ccc2sc(S(N)(=O)=O)cc2c1,197 to 198 °C
6,CCCNC(C=Cc1ccccc1Cl)=NC#N,134 to 136 °C
7,CCC(C)(C)c1cc(-c2ccc(C=C3SC(=O)NC3=O)cn2)cc2nc(C)oc12,312 °C
8,COc1ccc2cc([C@H](C)C(=O)OCC(C)(O[N+](=O)[O-])O[N+](=O)[O-])ccc2c1,67 to 68 °C
9,N#Cc1ccc(-c2cn(-c3ccc(OC(F)(F)F)cc3)cn2)cc1,155 °C
10,N#CCN1CCc2oc3ccccc3c2C1,78 °C
11,Cc1ccc(S(=O)(=O)c2cc3c(c(S(=O)(=O)NCCc4ccccc4F)c2)CCCC3)cc1,55 to 60 °C
12,NS(=O)(=O)c1cc2[nH]c(S)nc2cc1Cl,341 to 343 °C
13,O=C(NS(=O)(=O)c1ccccc1)c1ccc(C=CC(=O)N2CCc3c([nH]c4ccccc34)C2c2ccc3c(c2)OCO3)cc1 (stereo unspecified),134 °C
14,CC1(O)CSC(=S)N1c1ccccn1 (stereo unspecified),120 °C
15,C[C@]1(COC(=O)N2CCc3cc(Cl)ccc32)Cn2cc([N+](=O)[O-])nc2O1,189 to 191 °C
16,C#CCc1c(C)nc2c(OCc3ccncc3C)cccn12,156 to 157 °C
17,CC(C)(C)OC(=O)N1CCc2cc([N+](=O)[O-])ccc2C1,138 to 141 °C
18,O=C(CF)Cc1ccc(Cl)cc1Cl,48 to 52 °C
19,OCC1OC(n2cnc3c(NC4CCCCC4)nc(Cl)nc32)CC1O (stereo unspecified),160 to 162 °C
20,Cc1nc(-c2ccc(OCCCn3ccnc3)cc2)no1,110 to 112 °C
21,CCCc1ccc2oc(Cc3ccc(OC)cc3)c(C)c2c1O,83 to 96 °C
22,CCc1nc(NCC(C)O)c2c(n1)c(C)nn2C (stereo unspecified),116 to 119 °C
23,Cc1nn(C)c(-n2ccc3cc(Cl)ccc32)c1CCS(=O)(=O)NC(=O)OCC1CC1,170 °C
24,NCc1ccc(-c2ccc(N(Cc3ccccc3)Cc3ccccc3)cc2)cc1,122 to 125 °C
25,CC(C)c1ccccc1N1/C(=N\N=C/c2ccc(-c3ncn(-c4ccc(OC(F)(F)F)cc4)n3)cc2)SCC1(C)O (stereo unspecified),114 to 116 °C
26,Clc1ccc(-c2n[nH]c(SC3CCNCC3)c2-c2ccncc2)cc1,211 °C

# The remaining lines, values ahead:
row,melting point,SMILES
1,201 to 202 °C,CCCn1c(=O)c2c(nc(/C=C/c3ccc(OC)c(OC(C)=O)c3)n2C)n(CCC)c1=O
2,144 to 146 °C,CN(C)CC(O)CC1(O)c2ccccc2CCc2ccccc21 (stereo unspecified)
3,208 to 209 °C,N#Cc1c(N)nc2ccccc2c1Nc1cccs1
4,165 to 168 °C,COc1ccc2cc(C(C)C(=O)N3CSCC3C(=O)O)ccc2c1 (stereo unspecified)
5,84 to 87 °C,COC(=O)C(N)CSCc1ccccc1 (stereo unspecified)
6,171 to 173 °C,COc1ccc2c3c(c(=O)oc2c1)CN(Cc1cc(OC)c(OC)c(OC)c1)CC3
7,53 to 54 °C,COC(=O)Oc1c(OC)c(OC)c(OC(=O)OC)c2ccccc12
8,93 to 94 °C,CC(C)OP(=O)(OCN1C(=O)c2c(C(C)C)cc(OCC(=O)OCc3ccccc3)cc2S1(=O)=O)OC(C)C
9,288 °C,COc1ccc(-c2[nH]nc3c2C(=O)c2c(NC(=O)C(C)C)cccc2-3)cc1
10,174 to 175 °C,COCc1nc2c(N)nc3ccccc3c2n1CC(C)(C)O
11,81 to 81.5 °C,O=C(c1ccccc1)c1ccc(OC(=O)C2CC2)cc1
12,154 °C,CCN(c1ccc(Cl)cc1C(O)c1ccccc1Cl)S(=O)(=O)c1ccc(OC)c(OC)c1 (stereo unspecified)
13,154 to 156 °C,O=C(O)C(=O)CC(=O)c1cccn1Cc1cccc(F)c1F
14,94 to 96 °C,CCCOCCOC(=O)C(=O)Nc1nc(-c2ccccc2)cs1
15,78 °C,O=C(Cc1ccccc1)NCO
